Laboratory results as given in patent US10072065B2, “Peptide-mediated delivery of immunoglobulins across the blood-brain barrier” (Mayo Foundation for Medical Education and Research, priority 2015, dated 2018).

Tested on: blood-brain barrier (BBB)
Assay: Transportation of Evan's Blue (EB) across the BBB after IV Apo-I or peptide-cetuximab complex
Assay type: in vivo, mouse
Conditions: ~40 μL 2% EB only, IV femoral vein, brain evaluated approximately 2 hours after dye (brain number 1)
Experimental: To explore whether Apo-I transports an antibody across the BBB, the peptide or a peptide-cetuximab complex were first injected by IV followed by injection of Evan's Blue (EB; a routinely used small molecule blue dye with a molecular weight of 960.81) by IV into the femoral vein of a mouse. Cardiac perfusion was performed and the brains of the mice were removed and evaluated approximately 2 hours following injection of the dye. As a control, injection of EB only was used. The particulars of each administration are as follows: • 1) ˜40 μL 2% EB only was injected. • 2) 300 μg of Apo-I was injected first, then ˜40 μL 2% EB was injected. • 3) 600 μg of Apo-I was injected first, then ˜40 μL 2% EB was injected. • 4) 600 μg of Apo-I was mixed with 200 μg cetuximab prior to injection and then injected first, then ˜40 μL 2% EB was injected.

EB reaching the brain (blue coloring of brain): cannot reach the brain
SMILES: Cc1cc(-c2ccc(/N=N/c3ccc4c(S(=O)(=O)[O-])cc(S(=O)(=O)[O-])c(N)c4c3O)c(C)c2)ccc1/N=N/c1ccc2c(S(=O)(=O)[O-])cc(S(=O)(=O)[O-])c(N)c2c1O.[Na+].[Na+].[Na+].[Na+] [EB, Evan's Blue]
